# Results as given in patent publication US20080009418A1, “Selective Inhibitors” (Alchemia LTD., priority 2004, published 2008).
# Columns and labels:
# Human δ-opioid (DOP) = target: T1, Human δ-opioid (DOP) (Homo sapiens, UniProt P41143); assay: Radioligand binding, human δ-opioid (DOP) membranes, FlashPlate, [3H]-Bremazocine; settings: compound at 10 μM, [3H]-Bremazocine
# T1 construct: purchased Perkin Elmer Biosignal
# Method in brief: (§1)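 Cloned human receptor membranes were coated onto FlashPlate wells and incubated with radioligand and compound (added from a 0.5 mM DMSO daughter plate) for 1 hour at room temperature in the dark. Scintillation counting gave percent inhibition, with DMSO defining total and reference ligand defining non-specific binding.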
# Human κ-Opioid (KOP) = target: T2, Human κ-Opioid (KOP) (Homo sapiens, UniProt P41145); assay: Radioligand binding, human κ-opioid (KOP) membranes, filtration, [3H]-Diprenorphine; settings: compound at 10 μM, [3H]-Diprenorphine
# T2 construct: purchased Perkin Elmer Biosignal
# T2 sequence (P41145 whole entry): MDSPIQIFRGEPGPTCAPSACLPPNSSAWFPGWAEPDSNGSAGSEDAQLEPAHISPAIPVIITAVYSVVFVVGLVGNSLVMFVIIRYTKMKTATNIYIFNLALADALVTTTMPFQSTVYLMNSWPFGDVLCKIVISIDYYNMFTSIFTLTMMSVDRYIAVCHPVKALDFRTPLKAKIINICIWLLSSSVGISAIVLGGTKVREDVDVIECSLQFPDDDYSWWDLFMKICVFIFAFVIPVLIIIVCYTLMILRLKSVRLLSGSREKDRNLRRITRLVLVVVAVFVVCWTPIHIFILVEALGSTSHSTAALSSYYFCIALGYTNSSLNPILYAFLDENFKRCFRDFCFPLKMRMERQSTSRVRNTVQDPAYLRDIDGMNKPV
# Method in brief: (§2)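 Filtration binding on cloned human receptor membranes (1 Unit/well), [125I]-Substance P for NK1 and [3H]-Diprenorphine for KOP, 1 h at room temperature. Filters PEI-presoaked, washed with cold 50 mM Tris-HCl pH 7.4, counted by scintillation; percent inhibition calculated, reference ligand defining non-specific binding.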
# Human Melanocortin (MC3) = target: T3, Human Melanocortin (MC3) (Homo sapiens, UniProt P41968); assay: Radioligand binding, human melanocortin MC3 membranes, FlashPlate, [125I]-NDP-αMSH; settings: compound at 10 μM, [125I]-NDP-αMSH
# T3 construct: purchased Perkin Elmer Biosignal
# T3 sequence (P41968 whole entry): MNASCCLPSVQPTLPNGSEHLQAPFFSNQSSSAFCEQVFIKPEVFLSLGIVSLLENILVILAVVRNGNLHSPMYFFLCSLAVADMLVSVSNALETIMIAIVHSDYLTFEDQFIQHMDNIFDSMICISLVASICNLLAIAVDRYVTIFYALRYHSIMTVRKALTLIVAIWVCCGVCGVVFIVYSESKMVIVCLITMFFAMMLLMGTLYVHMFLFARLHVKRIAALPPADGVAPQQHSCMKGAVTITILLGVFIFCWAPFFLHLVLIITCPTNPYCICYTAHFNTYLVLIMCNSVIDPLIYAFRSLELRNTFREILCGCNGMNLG
# Method in brief: as §1
# Human Melanocortin (MC4) = target: T4, Human Melanocortin (MC4) (Homo sapiens, UniProt P32245); assay: Radioligand binding, human melanocortin MC4 membranes, FlashPlate, [125I]-NDP-αMSH; settings: compound at 10 μM, [125I]-NDP-αMSH
# T4 construct: purchased Perkin Elmer Biosignal
# T4 sequence (P32245 whole entry): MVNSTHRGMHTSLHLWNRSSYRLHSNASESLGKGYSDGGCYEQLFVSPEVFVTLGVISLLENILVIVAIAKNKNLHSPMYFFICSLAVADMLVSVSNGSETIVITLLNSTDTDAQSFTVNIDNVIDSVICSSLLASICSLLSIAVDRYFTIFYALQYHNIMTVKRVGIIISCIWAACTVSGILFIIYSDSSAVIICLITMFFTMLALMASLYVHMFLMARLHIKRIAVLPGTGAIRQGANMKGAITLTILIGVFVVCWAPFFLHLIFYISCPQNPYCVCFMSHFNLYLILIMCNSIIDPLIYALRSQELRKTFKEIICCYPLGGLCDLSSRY
# Method in brief: as §1
# Human melanocortin (MC5) = target: T5, Human melanocortin (MC5) (Homo sapiens, UniProt P33032); assay: Radioligand binding, human melanocortin MC5 membranes, FlashPlate, [125I]-NDP-αMSH; settings: compound at 10 μM, [125I]-NDP-αMSH
# T5 construct: purchased Perkin Elmer Biosignal
# T5 sequence (P33032 whole entry): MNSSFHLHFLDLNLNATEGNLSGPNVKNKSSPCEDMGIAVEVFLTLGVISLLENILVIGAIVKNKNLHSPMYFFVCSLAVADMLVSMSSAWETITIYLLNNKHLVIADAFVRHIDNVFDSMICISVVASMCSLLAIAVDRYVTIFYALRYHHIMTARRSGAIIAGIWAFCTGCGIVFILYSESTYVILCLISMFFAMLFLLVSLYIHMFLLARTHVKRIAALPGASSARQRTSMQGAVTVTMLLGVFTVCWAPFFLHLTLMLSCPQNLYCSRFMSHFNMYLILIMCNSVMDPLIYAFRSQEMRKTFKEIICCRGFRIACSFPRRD
# Method in brief: as §1
# [1] = target: T6, Human melanin-concentrating hormone (MCH1) (Homo sapiens, UniProt Q99705); assay: Radioligand binding, human melanin-concentrating hormone MCH1 membranes, FlashPlate, [125I]-S36057; settings: compound at 10 μM; for A6: inhibition of radioligand binding, human melanin-concentrating hormone (MCH1): [125I]-S36057
# T6 construct: purchased Perkin Elmer Biosignal
# T6 sequence (Q99705 whole entry): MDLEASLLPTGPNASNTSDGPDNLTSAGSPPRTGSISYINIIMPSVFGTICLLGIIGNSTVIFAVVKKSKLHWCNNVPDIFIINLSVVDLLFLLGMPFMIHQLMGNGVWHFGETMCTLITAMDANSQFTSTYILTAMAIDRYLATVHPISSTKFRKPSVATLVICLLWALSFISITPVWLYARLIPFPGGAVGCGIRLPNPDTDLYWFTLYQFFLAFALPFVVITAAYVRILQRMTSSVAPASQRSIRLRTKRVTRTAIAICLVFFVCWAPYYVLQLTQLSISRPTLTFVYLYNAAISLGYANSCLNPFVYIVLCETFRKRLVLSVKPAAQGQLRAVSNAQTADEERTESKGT
# Method in brief: as §1
# Human μ-opioid (MOP) = target: T7, Human μ-opioid (MOP) (Homo sapiens, UniProt P35372); assay: Radioligand binding, human μ-opioid (MOP) membranes, FlashPlate, [3H]-Naloxone; settings: compound at 10 μM, [3H]-Naloxone
# T7 construct: purchased Perkin Elmer Biosignal
# T7 sequence (P35372 whole entry): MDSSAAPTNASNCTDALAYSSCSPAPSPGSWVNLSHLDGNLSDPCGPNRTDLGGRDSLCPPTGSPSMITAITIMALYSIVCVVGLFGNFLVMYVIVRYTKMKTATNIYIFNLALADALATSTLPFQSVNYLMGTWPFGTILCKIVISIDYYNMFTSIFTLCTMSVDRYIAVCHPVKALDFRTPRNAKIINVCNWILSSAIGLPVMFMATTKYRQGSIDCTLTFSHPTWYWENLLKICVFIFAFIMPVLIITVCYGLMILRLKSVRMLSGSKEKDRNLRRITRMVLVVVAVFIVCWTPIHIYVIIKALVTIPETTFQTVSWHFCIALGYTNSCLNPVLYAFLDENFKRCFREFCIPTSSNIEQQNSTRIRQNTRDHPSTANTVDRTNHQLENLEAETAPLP
# Method in brief: as §1
# Human neurokinin (NK1) = target: T8, Human neurokinin (NK1) (Homo sapiens, UniProt P25103); assay: Radioligand binding, human neurokinin NK1 membranes, filtration, [125I]-Substance P; settings: compound at 10 μM, [125I]-Substance P
# T8 construct: purchased Perkin Elmer Biosignal
# T8 sequence (P25103 whole entry): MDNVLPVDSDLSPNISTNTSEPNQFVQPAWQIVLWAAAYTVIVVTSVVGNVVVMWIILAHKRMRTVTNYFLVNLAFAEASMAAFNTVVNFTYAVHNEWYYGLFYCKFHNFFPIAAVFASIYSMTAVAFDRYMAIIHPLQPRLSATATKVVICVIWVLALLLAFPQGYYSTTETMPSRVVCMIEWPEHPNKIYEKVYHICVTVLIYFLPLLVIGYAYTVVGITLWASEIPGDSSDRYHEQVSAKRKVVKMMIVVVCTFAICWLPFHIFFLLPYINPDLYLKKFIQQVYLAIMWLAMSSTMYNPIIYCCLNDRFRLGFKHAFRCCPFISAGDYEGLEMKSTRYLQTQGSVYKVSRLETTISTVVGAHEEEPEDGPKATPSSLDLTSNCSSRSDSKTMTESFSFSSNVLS
# Method in brief: as §2
# [2] = target: T9, Human neuropeptide Y (NPY-Y1) (Homo sapiens, UniProt P25929); assay: Radioligand binding, human neuropeptide Y NPY-Y1 membranes, FlashPlate, [125I]-PYY; settings: compound at 10 μM, [125I]-PYY
# T9 construct: purchased Perkin Elmer Biosignal
# T9 sequence (P25929 1-384): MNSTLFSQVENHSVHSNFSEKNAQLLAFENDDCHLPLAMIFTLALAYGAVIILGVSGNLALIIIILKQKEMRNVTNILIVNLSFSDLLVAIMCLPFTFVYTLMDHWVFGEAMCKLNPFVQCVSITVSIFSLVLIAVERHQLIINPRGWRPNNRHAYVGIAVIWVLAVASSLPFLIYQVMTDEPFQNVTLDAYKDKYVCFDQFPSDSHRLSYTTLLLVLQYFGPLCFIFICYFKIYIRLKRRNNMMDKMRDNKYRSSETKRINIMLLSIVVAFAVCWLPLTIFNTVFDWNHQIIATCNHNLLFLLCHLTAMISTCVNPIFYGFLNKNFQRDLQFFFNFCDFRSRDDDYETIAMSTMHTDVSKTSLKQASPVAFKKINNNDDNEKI
# Method in brief: as §1
# Human opioid (ORL1) = target: T10, Human opioid (ORL1) (Homo sapiens, UniProt P41146); assay: Radioligand binding, human opioid ORL1 membranes, FlashPlate, [125I]-Nociceptin; settings: compound at 10 μM, [125I]-Nociceptin
# T10 construct: purchased Perkin Elmer Biosignal
# T10 sequence (P41146 whole entry): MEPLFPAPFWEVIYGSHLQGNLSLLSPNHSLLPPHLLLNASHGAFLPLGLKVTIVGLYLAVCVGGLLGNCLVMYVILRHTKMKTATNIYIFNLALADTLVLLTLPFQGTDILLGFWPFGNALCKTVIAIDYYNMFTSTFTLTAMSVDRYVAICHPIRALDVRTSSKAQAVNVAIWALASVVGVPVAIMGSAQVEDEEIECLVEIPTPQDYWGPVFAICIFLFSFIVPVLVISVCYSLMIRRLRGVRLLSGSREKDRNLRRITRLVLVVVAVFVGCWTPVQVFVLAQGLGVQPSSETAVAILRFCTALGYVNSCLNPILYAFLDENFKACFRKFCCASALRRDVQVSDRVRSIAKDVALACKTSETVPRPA
# Method in brief: as §1
# Mouse urotensin (mUR2) = target: T11, Mouse urotensin (mUR2) (Mus musculus, UniProt Q8VIH9); assay: Radioligand binding, mouse urotensin mUR2 membranes, FlashPlate, [125I]-Urotensin II; settings: compound at 10 μM, [125I]-Urotensin II
# T11 construct: purchased Perkin Elmer Biosignal
# T11 sequence (Q8VIH9 1-385): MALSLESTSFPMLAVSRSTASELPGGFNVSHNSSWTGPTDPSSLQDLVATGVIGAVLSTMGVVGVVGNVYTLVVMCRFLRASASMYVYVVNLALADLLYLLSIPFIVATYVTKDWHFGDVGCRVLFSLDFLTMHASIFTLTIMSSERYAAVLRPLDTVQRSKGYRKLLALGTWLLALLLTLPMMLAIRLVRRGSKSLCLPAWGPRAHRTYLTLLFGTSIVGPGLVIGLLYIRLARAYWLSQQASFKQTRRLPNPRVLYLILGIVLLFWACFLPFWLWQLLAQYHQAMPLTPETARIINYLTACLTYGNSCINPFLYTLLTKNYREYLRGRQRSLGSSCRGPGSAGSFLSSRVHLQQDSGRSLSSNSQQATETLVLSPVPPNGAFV
# Method in brief: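 Cloned mouse urotensin (mUR2) receptor membranes from Perkin Elmer Biosignal were immobilized in FlashPlate microplates using a proprietary coating. Each well got 19.5 μl buffer, then 0.5 μl of DMSO, reference ligand, or compound. Adding 5 μl of [125I]-Urotensin II, diluted to 5× final concentration in binding buffer, started binding. Plates were sealed with TopSeal-A and incubated 1 hour at room temperature in the dark. Wells were counted for 30 seconds each on a TopCount after a 60-second delay, and percentage inhibition was calculated.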
# T1 sequence (P41143 whole entry): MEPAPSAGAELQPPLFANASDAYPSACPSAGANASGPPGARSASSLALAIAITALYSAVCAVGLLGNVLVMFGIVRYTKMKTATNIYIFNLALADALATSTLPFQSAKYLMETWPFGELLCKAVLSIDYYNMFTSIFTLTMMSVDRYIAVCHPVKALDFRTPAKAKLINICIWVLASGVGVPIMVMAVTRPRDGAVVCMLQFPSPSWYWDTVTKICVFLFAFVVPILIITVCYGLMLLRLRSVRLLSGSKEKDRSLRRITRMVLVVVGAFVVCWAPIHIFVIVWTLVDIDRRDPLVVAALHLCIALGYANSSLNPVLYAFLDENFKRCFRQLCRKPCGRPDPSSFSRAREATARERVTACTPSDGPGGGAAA
SMILES,"A1: inhibition of radioligand binding, human δ-opioid (DOP) (Human δ-opioid (DOP))","A2: inhibition of radioligand binding, human κ-opioid (KOP) (Human κ-Opioid (KOP))","A3: inhibition of radioligand binding, human melanocortin (MC3) (Human Melanocortin (MC3))","A4: inhibition of radioligand binding, human melanocortin (MC4) (Human Melanocortin (MC4))","A5: inhibition of radioligand binding, human melanocortin (MC5) (Human melanocortin (MC5))","A6: inhibition of radioligand binding, human melanin-concentrating hormone (MCH1) [1]","A7: inhibition of radioligand binding, human μ-opioid (MOP) (Human μ-opioid (MOP))","A8: inhibition of radioligand binding, human neurokinin (NK1) (Human neurokinin (NK1))","A9: inhibition of radioligand binding, human neuropeptide Y (NPY-Y1) [2]","A10: inhibition of radioligand binding, human opioid (ORL1) (Human opioid (ORL1))","A11: inhibition of radioligand binding, mouse urotensin (mUR2) (Mouse urotensin (mUR2))",other results
N=C(N)NCCC(=O)NC1C(OCc2ccc(-c3ccccc3)cc2)OC(COCc2ccc3ccccc3c2)C(O)C1OCc1ccc2ccccc2c1 (stereo not shown) [compound 411],,,,,,,,,,,,"A1: inhibition of radioligand binding (Human δ-opioid (DOP); human DOP membranes): − (“−” indicates less than 50% inhibition at 10 μM); A2: inhibition of radioligand binding (Human κ-Opioid (KOP); human KOP membranes): − (“−” indicates less than 50% inhibition at 10 μM); A3: inhibition of radioligand binding (Human Melanocortin (MC3); human MC3 membranes): + (“+” indicates greater than 50% inhibition at 10 μM); A4: inhibition of radioligand binding (Human Melanocortin (MC4); human MC4 membranes): + (“+” indicates greater than 50% inhibition at 10 μM); A5: inhibition of radioligand binding (Human melanocortin (MC5); human MC5 membranes): + (“+” indicates greater than 50% inhibition at 10 μM); A6: inhibition of radioligand binding ([1]; [125I]-S36057, human MCH1 membranes): + (“+” indicates greater than 50% inhibition at 10 μM); A7: inhibition of radioligand binding (Human μ-opioid (MOP); human MOP membranes): − (“−” indicates less than 50% inhibition at 10 μM); A8: inhibition of radioligand binding (Human neurokinin (NK1); human NK1 membranes): + (“+” indicates greater than 50% inhibition at 10 μM); A9: inhibition of radioligand binding ([2]; human NPY-Y1 membranes): − (“−” indicates less than 50% inhibition at 10 μM); A10: inhibition of radioligand binding (Human opioid (ORL1); human ORL1 membranes): + (“+” indicates greater than 50% inhibition at 10 μM); A11: inhibition of radioligand binding (Mouse urotensin (mUR2); mouse mUR2 membranes): − (“−” indicates less than 50% inhibition at 10 μM)"
CSC1OC(COCc2ccccc2)C(O)C(OCc2ccccc2)C1NC(=O)CCCNC(=N)N (stereo not shown) [compound 252],,,,,,,,,,,,"A1: inhibition of radioligand binding (Human δ-opioid (DOP); FlashPlate): − (“−” indicates less than 50% inhibition at 10 μM); A2: inhibition of radioligand binding (Human κ-Opioid (KOP); filtration): − (“−” indicates less than 50% inhibition at 10 μM); A3: inhibition of radioligand binding (Human Melanocortin (MC3); FlashPlate): − (“−” indicates less than 50% inhibition at 10 μM); A4: inhibition of radioligand binding (Human Melanocortin (MC4); FlashPlate): − (“−” indicates less than 50% inhibition at 10 μM); A5: inhibition of radioligand binding (Human melanocortin (MC5); FlashPlate): − (“−” indicates less than 50% inhibition at 10 μM); A6: inhibition of radioligand binding ([1]; [125I]-S36057, FlashPlate): − (“−” indicates less than 50% inhibition at 10 μM); A7: inhibition of radioligand binding (Human μ-opioid (MOP); FlashPlate): − (“−” indicates less than 50% inhibition at 10 μM); A8: inhibition of radioligand binding (Human neurokinin (NK1); filtration): + (“+” indicates greater than 50% inhibition at 10 μM); A9: inhibition of radioligand binding ([2]; FlashPlate): − (“−” indicates less than 50% inhibition at 10 μM); A10: inhibition of radioligand binding (Human opioid (ORL1); FlashPlate): − (“−” indicates less than 50% inhibition at 10 μM); A11: inhibition of radioligand binding (Mouse urotensin (mUR2); FlashPlate): − (“−” indicates less than 50% inhibition at 10 μM)"
NCCC(=O)NC1C(OCc2ccccc2)OC(COCc2ccc(Cl)cc2)C(O)C1OCc1ccc2ccccc2c1 (stereo not shown) [compound 368],− (“−” indicates less than 50% inhibition at 10 μM),− (“−” indicates less than 50% inhibition at 10 μM),+ (“+” indicates greater than 50% inhibition at 10 μM),+ (“+” indicates greater than 50% inhibition at 10 μM),+ (“+” indicates greater than 50% inhibition at 10 μM),− (“−” indicates less than 50% inhibition at 10 μM),− (“−” indicates less than 50% inhibition at 10 μM),+ (“+” indicates greater than 50% inhibition at 10 μM),− (“−” indicates less than 50% inhibition at 10 μM),− (“−” indicates less than 50% inhibition at 10 μM),− (“−” indicates less than 50% inhibition at 10 μM),
"NCCCC(=O)NC1C(OCc2ccc(Cl)cc2)OC(COCc2ccccc2)C(O)C1OCc1ccccc1 (single isomer, unassigned) [compound 504]",− (“−” indicates less than 50% inhibition at 10 μM),− (“−” indicates less than 50% inhibition at 10 μM),− (“−” indicates less than 50% inhibition at 10 μM),− (“−” indicates less than 50% inhibition at 10 μM),,− (“−” indicates less than 50% inhibition at 10 μM),− (“−” indicates less than 50% inhibition at 10 μM),+ (“+” indicates greater than 50% inhibition at 10 μM),− (“−” indicates less than 50% inhibition at 10 μM),,− (“−” indicates less than 50% inhibition at 10 μM),"A5: inhibition of radioligand binding, human melanocortin (MC5) (Human melanocortin (MC5); 10 µM): − (“−” indicates less than 50% inhibition at 10 μM); A10: inhibition of radioligand binding, human opioid (ORL1) (Human opioid (ORL1); 10 µM): + (“+” indicates greater than 50% inhibition at 10 μM)"
CSC1OC(COCc2ccccc2)C(O)C(OCc2ccc3ccccc3c2)C1NC(=O)CN (stereo not shown) [compound 301],− (“−” indicates less than 50% inhibition at 10 μM),− (“−” indicates less than 50% inhibition at 10 μM),− (“−” indicates less than 50% inhibition at 10 μM),− (“−” indicates less than 50% inhibition at 10 μM),− (“−” indicates less than 50% inhibition at 10 μM),− (“−” indicates less than 50% inhibition at 10 μM),− (“−” indicates less than 50% inhibition at 10 μM),+ (“+” indicates greater than 50% inhibition at 10 μM),− (“−” indicates less than 50% inhibition at 10 μM),− (“−” indicates less than 50% inhibition at 10 μM),− (“−” indicates less than 50% inhibition at 10 μM),
